Source: patent publication US20260159523A1, “PESTICIDALLY ACTIVE HETEROCYCLIC DERIVATIVES WITH SULFUR CONTAINING SUBSTITUENTS” (SYNGENTA CROP PROTECTION AG, priority 2022, published 2026)

Legend:
Assay type in all cases: in vivo
Euschistus heros = assay: Activity against Euschistus heros (neotropical brown stink bug), soybean leaves; settings: 120 h, application rate 200 ppm, N2 nymphs, 5 days after infestation, read-out: effect in at least one of the two categories (mortality or growth inhibition)
Protocol: Activity Against Euschistus heros (Neotropical Brown Stink Bug)
Soybean leaves on agar in 24-well microtiter plates were sprayed with aqueous test solutions prepared from 10'000 ppm DMSO stock solutions. After drying the leaves were infested with N2 nymphs. The samples were assessed for mortality and growth inhibition in comparison to untreated samples 5 days after infestation.

Myzus persicae [1] = assay: Activity against Myzus persicae (green peach aphid), systemic activity; settings: 144 h, test rate 24 ppm, pea seedling roots in test solution, 6 days
Protocol: Activity Against Myzus persicae (Green Peach Aphid) Systemic Activity
Roots of pea seedlings infested with an aphid population of mixed ages were placed directly into aqueous test solutions prepared from 10'000 DMSO stock solutions. The samples were assessed for mortality 6 days after placing seedlings into test solutions.

Myzus persicae [2] = assay: Activity against Myzus persicae (green peach aphid), feeding/contact activity; settings: foliar, 144 h, application rate 200 ppm, sunflower leaf discs, mixed ages, 6 days after infestation
Protocol: Activity Against Myzus persicae (Green Peach Aphid) Feeding/Contact Activity
Sunflower leaf discs were placed onto agar in a 24-well microtiter plate and sprayed with aqueous test solutions prepared from 10'000 ppm DMSO stock solutions. After drying, the leaf discs were infested with an aphid population of mixed ages. The samples were assessed for mortality 6 days after infestation.

Plutella xylostella = assay: Activity against Plutella xylostella (diamond back moth), artificial diet; settings: 192 h, application rate 200 ppm, eggs, 8 days after infestation, read-out: effect in at least one of the two categories (mortality or growth inhibition)
Protocol: Activity Against Plutella xylostella (Diamond Back Moth)
24-well microtiter plates with artificial diet were treated with aqueous test solutions prepared from 10'000 ppm DMSO stock solutions by pipetting. After drying, Plutella eggs were pipetted through a plastic stencil onto a gel blotting paper and the plate was closed with it. The samples were assessed for mortality and growth inhibition in comparison to untreated samples 8 days after infestation.

Spodoptera littoralis = assay: Activity against Spodoptera littoralis (Egyptian cotton leaf worm), cotton leaf discs; settings: foliar, 72 h, application rate 200 ppm, L1 larvae, 3 days after infestation
Protocol: Activity Against Spodoptera littoralis (Egyptian Cotton Leaf Worm)
Cotton leaf discs were placed onto agar in 24-well microtiter plates and sprayed with aqueous test solutions prepared from 10'000 ppm DMSO stock solutions. After drying the leaf discs were infested with five L1 larvae. The samples were assessed for mortality, anti-feeding effect, and growth inhibition in comparison to untreated samples 3 days after infestation. Control of Spodoptera littoralis by a test sample is given when at least one of the categories mortality, anti-feedant effect, and growth inhibition is higher than the untreated sample.

Diabrotica balteata = assay: Activity against Diabrotica balteata (corn root worm), maize sprouts; settings: 96 h, application rate 200 ppm, L2 larvae, 4 days after infestation, read-out: effect in at least one of the two categories (mortality or growth inhibition)
Protocol: Activity Against Diabrotica balteata (Corn Root Worm)
Maize sprouts placed onto an agar layer in 24-well microtiter plates were treated with aqueous test solutions prepared from 10'000 ppm DMSO stock solutions by spraying. After drying, the plates were infested with L2 larvae (6 to 10 per well). The samples were assessed for mortality and growth inhibition in comparison to untreated samples 4 days after infestation.

Chilo suppressalis = assay: Activity against Chilo suppressalis (striped rice stemborer), artificial diet; settings: 144 h, application rate 200 ppm, L2 larvae, 6 days after infestation
Protocol: Activity Against Chilo suppressalis (Striped Rice Stemborer)
24-well microtiter plates with artificial diet were treated with aqueous test solutions prepared from 10'000 ppm DMSO stock solutions by pipetting. After drying, the plates were infested with L2 larvae (6-8 per well). The samples were assessed for mortality, anti-feeding effect, and growth inhibition in comparison to untreated samples 6 days after infestation. Control of Chilo suppressalis by a test sample is given when at least one of the categories mortality, anti-feedant effect, and growth inhibition is higher than the untreated sample.

CCS(=O)(=O)c1cc(C2(C#N)CC2)cnc1-c1coc2ccc(C(F)(F)F)cc2c1=O [P.1, 1-[5-ethylsulfonyl-6-[4-oxo-6-(trifluoromethyl)chromen-3-yl]-3-pyridyl]cyclopropanecarbonitrile]
≥ 80%: percent effect (mortality or growth inhibition) at 200 ppm (Euschistus heros) | mortality at 24 ppm (Myzus persicae [1]) | mortality at 200 ppm (Myzus persicae [2]) | percent effect (mortality or growth inhibition) at 200 ppm (Plutella xylostella) | percent control (mortality, anti-feedant effect or growth inhibition) at 200 ppm (Spodoptera littoralis) | percent effect (mortality or growth inhibition) at 200 ppm (Diabrotica balteata) | percent control (mortality, anti-feedant effect or growth inhibition) at 200 ppm (Chilo suppressalis)

CCS(=O)(=O)c1cc(C2(C#N)CC2)cnc1-c1coc2ccc(F)cc2c1=O [P.2, 1-[5-ethylsulfonyl-6-(6-fluoro-4-oxo-chromen-3-yl)-3-pyridyl]cyclo-propanecarbonitrile]
≥ 80%: percent effect (mortality or growth inhibition) at 200 ppm (Euschistus heros) | mortality at 24 ppm (Myzus persicae [1]) | percent effect (mortality or growth inhibition) at 200 ppm (Plutella xylostella) | percent control (mortality, anti-feedant effect or growth inhibition) at 200 ppm (Spodoptera littoralis) | percent effect (mortality or growth inhibition) at 200 ppm (Diabrotica balteata) | percent control (mortality, anti-feedant effect or growth inhibition) at 200 ppm (Chilo suppressalis)

CCS(=O)(=O)c1cc(C2(C#N)CC2)cnc1-c1coc2ccc(Cl)cc2c1=O [P.3, 1-[6-(6-chloro-4-oxo-chromen-3-yl)-5-ethylsulfonyl-3-pyridyl]-cyclopropanecarbonitrile]
≥ 80%: percent effect (mortality or growth inhibition) at 200 ppm (Euschistus heros) | mortality at 200 ppm (Myzus persicae [2]) | percent effect (mortality or growth inhibition) at 200 ppm (Plutella xylostella) | percent control (mortality, anti-feedant effect or growth inhibition) at 200 ppm (Spodoptera littoralis) | percent effect (mortality or growth inhibition) at 200 ppm (Diabrotica balteata) | percent control (mortality, anti-feedant effect or growth inhibition) at 200 ppm (Chilo suppressalis)

CCS(=O)(=O)c1cc(C2(C#N)CC2)cnc1-c1coc2ccc(C#N)cc2c1=O [P.4, 3-[5-(1-cyanocyclopropyl)-3-ethylsulfonyl-2-pyridyl]-4-oxo-chromene-6-carbonitrile]
≥ 80%: mortality at 24 ppm (Myzus persicae [1]) | percent effect (mortality or growth inhibition) at 200 ppm (Plutella xylostella)

CCS(=O)(=O)c1cc(C2(C#N)CC2)cnc1-c1coc2ccc(Br)cc2c1=O [P.5, 1-[6-(6-bromo-4-oxo-chromen-3-yl)-5-ethylsulfonyl-3-pyridyl]-cyclopropanecarbonitrile]
≥ 80%: percent effect (mortality or growth inhibition) at 200 ppm (Euschistus heros) | percent effect (mortality or growth inhibition) at 200 ppm (Plutella xylostella) | percent control (mortality, anti-feedant effect or growth inhibition) at 200 ppm (Spodoptera littoralis) | percent effect (mortality or growth inhibition) at 200 ppm (Diabrotica balteata) | percent control (mortality, anti-feedant effect or growth inhibition) at 200 ppm (Chilo suppressalis)

CCS(=O)(=O)c1cc(C2(C#N)CC2)cnc1-c1coc2ccc(I)cc2c1=O [P.6, 1-[5-ethylsulfonyl-6-(6-iodo-4-oxo-chromen-3-yl)-3-pyridyl]cyclo-propanecarbonitrile]
≥ 80%: percent effect (mortality or growth inhibition) at 200 ppm (Euschistus heros) | mortality at 200 ppm (Myzus persicae [2]) | percent effect (mortality or growth inhibition) at 200 ppm (Plutella xylostella) | percent control (mortality, anti-feedant effect or growth inhibition) at 200 ppm (Spodoptera littoralis) | percent effect (mortality or growth inhibition) at 200 ppm (Diabrotica balteata) | percent control (mortality, anti-feedant effect or growth inhibition) at 200 ppm (Chilo suppressalis)

CCS(=O)(=O)c1cc(C2(C#N)CC2)cnc1-c1coc2ccc(-c3cc(F)cc(F)c3)cc2c1=O [P.7, 1-[6-[6-(3,5-difluorophenyl)-4-oxo-chromen-3-yl]-5-ethylsulfonyl-3-pyridyl]-cyclopropanecarbonitrile]
≥ 80%: mortality at 200 ppm (Myzus persicae [2]) | percent control (mortality, anti-feedant effect or growth inhibition) at 200 ppm (Spodoptera littoralis) | percent effect (mortality or growth inhibition) at 200 ppm (Diabrotica balteata)

CCS(=O)(=O)c1cc(C2(C#N)CC2)cnc1-c1coc2ccc(-c3ccc(F)cc3)cc2c1=O [P.8, 1-[5-ethylsulfonyl-6-[6-(4-fluorophenyl)-4-oxo-chromen-3-yl]-3-pyridyl]-cyclopropanecarbonitrile]
≥ 80%: percent effect (mortality or growth inhibition) at 200 ppm (Plutella xylostella) | percent control (mortality, anti-feedant effect or growth inhibition) at 200 ppm (Chilo suppressalis)
